Results taken from US9326973B2, “Hepatitis C virus inhibitors” (priority 2012, dated 2016).

Test system: HCV replicon, genotype-1a variant with glutamine 30 changed to glutamate in the NS5A protein
Assay: microbe, parasite or virus in culture
Format: cell-based, HCV genotype 1a
Conditions: HCV replicon genotype 1a Q30E (Q→E) variant; test compound titrated with an NS5A-targeting compound (BMS-790052 fixed at 200 nM); ranking of synergist activity
Text: The NS5A synergistic inhibitory effect of test compounds can be determined using various amounts of an NS5A-targeting compound with titration of a second compound of interest. […] In one embodiment, the HCV genotype strain can be genotype 1a containing a change at amino acid 30 of the NS5A protein consisting of glutamine to glutamate. The test compound can be chosen from compounds listed above or from others present in the literature.

Row | SMILES | Fold-Synergistic 1a (Q30E) [fold]
1 | CC(C)[C@H](NC(=O)c1cc(Cl)ccc1F)c1nc(-c2ccc(-c3ccc(-c4c[nH]c([C@@H](NC(=O)c5cc(Cl)ccc5F)C(C)C)n4)c(F)c3)cc2)c[nH]1 [Compound N-88] | >100
2 | CCC(C)[C@H](NC(=O)[C@H](NC(=O)OC)C(C)C)c1nc(-c2ccc(-c3ccc(-c4c[nH]c([C@@H](NC(=O)[C@H](NC(=O)OC)C(C)C)C(C)CC)n4)cc3)cc2)c[nH]1 (some centres unmarked) [Compound N-32] | >10
3 | O=C(CCC1CCCC1)N1CCC[C@H]1c1ncc(-c2ccc(-c3ccc(-c4cnc([C@@H]5CCCN5C(=O)CCC5CCCC5)[nH]4)cc3)cc2)[nH]1 [Compound S-166] | >10
4 | O=C(c1cnccc1C(F)(F)F)N1CCC[C@H]1c1ncc(-c2ccc(-c3ccc(-c4cnc([C@@H]5CCCN5C(=O)c5cnccc5C(F)(F)F)[nH]4)cc3)cc2)[nH]1 [Compound S-134] | <10
5 | CC(C)(C)OC(=O)N1C[C@H]2CC2[C@H]1C(=O)N[C@H](c1nc(-c2ccc(-c3ccc(-c4c[nH]c([C@@H](NC(=O)[C@@H]5C6C[C@@H]6CN5C(=O)OC(C)(C)C)C5(C)CC5)n4)cc3)cc2)c[nH]1)C1(C)CC1 (some centres unmarked) [Compound W-75] | >100
6 | CCN(CC(F)(F)F)C(=O)C(=O)N[C@H](c1nc(-c2ccc(-c3ccc(-c4c[nH]c([C@@H](NC(=O)C(=O)N(CC)CC(F)(F)F)C(C)(C)C)n4)cc3)cc2)c[nH]1)C(C)(C)C [Compound W-37] | >100
7 | CC(C)CC(=O)NC1(c2nc(-c3ccc(-c4ccc(-c5c[nH]c(C6(NC(=O)CC(C)C)CCCC6)n5)cc4)cc3)c[nH]2)CCCC1 [Compound N-12] | <10
8 | CC(C)(C)OC(=O)N1C[C@@H](O)C[C@H]1C(=O)N[C@H](c1nc(-c2ccc(-c3ccc(-c4c[nH]c([C@@H](NC(=O)[C@@H]5C[C@H](O)CN5C(=O)OC(C)(C)C)C5(C)CC5)n4)cc3)cc2)c[nH]1)C1(C)CC1 [Compound W-99] | >100
9 | Cn1cc(C(=O)N2CCC[C@H]2c2ncc(-c3ccc(-c4ccc(-c5cnc([C@@H]6CCCN6C(=O)c6cn(C)c7ccccc67)[nH]5)cc4)cc3)[nH]2)c2ccccc21 [Compound S-142] | >10
10 | C[C@@H](OC(=O)NC1(C(=O)N[C@H](c2nc(-c3ccc(-c4ccc(-c5c[nH]c([C@@H](NC(=O)C6(NC(=O)O[C@H](C)C(F)(F)F)CC6)C6(C)CC6)n5)cc4)cc3)c[nH]2)C2(C)CC2)CC1)C(F)(F)F [Compound L-42] | >100
11 | C[C@@H]1CCCCN1C(=O)C(=O)N[C@H](c1nc(-c2ccc(-c3ccc(-c4c[nH]c([C@@H](NC(=O)C(=O)N5CCCC[C@H]5C)C(C)(C)C)n4)cc3)cc2)c[nH]1)C(C)(C)C [Compound W-38] | >100
12 | NC(=O)CCC(=O)N1CCC[C@H]1c1ncc(-c2ccc(-c3ccc(-c4cnc([C@@H]5CCCN5C(=O)CCC(N)=O)[nH]4)cc3)cc2)[nH]1 [Compound S-186] | <10
13 | CC(=O)N(C)C1(C(=O)N[C@H](c2nc(-c3ccc(-c4ccc(-c5c[nH]c([C@@H](NC(=O)C6(N(C)C(C)=O)CCC6)C(C)(C)C)n5)cc4)cc3)c[nH]2)C(C)(C)C)CCC1 [Compound L-12] | >100
14 | CC(C)(C)[C@H](NC(=O)[C@H]1C[C@](C)(O)C1)c1nc(-c2ccc(-c3ccc(-c4c[nH]c([C@@H](NC(=O)[C@H]5C[C@](C)(O)C5)C(C)(C)C)n4)cc3)cc2)c[nH]1 [Compound W-170] | >100
15 | CC(C)(C)[C@H](NC(=O)C1(C(F)F)CCCCO1)c1nc(-c2ccc(-c3ccc(-c4c[nH]c([C@@H](NC(=O)C5(C(F)F)CCCCO5)C(C)(C)C)n4)cc3)cc2)c[nH]1 (some centres unmarked) [Compound P-179] | >100
16 | CC(C)(C)[C@H](NC(=O)C(C)(C)n1cnc(C(F)(F)F)c1)c1nc(-c2ccc(-c3ccc(-c4c[nH]c([C@@H](NC(=O)C(C)(C)n5cnc(C(F)(F)F)c5)C(C)(C)C)n4)cc3)cc2)c[nH]1 [Compound W-150] | >100
17 | Cc1nnc(C(=O)N[C@H](c2nc(-c3ccc(-c4ccc(-c5c[nH]c([C@@H](NC(=O)c6nnc(C)o6)C(C)(C)C)n5)cc4)cc3)c[nH]2)C(C)(C)C)o1 [Compound L-89] | >10
18 | CO[C@](C(=O)N[C@H](c1nc(-c2ccc(-c3ccc(-c4c[nH]c([C@@H](NC(=O)[C@@](OC)(c5ccccc5)C(F)(F)F)C(C)(C)C)n4)cc3)cc2)c[nH]1)C(C)(C)C)(c1ccccc1)C(F)(F)F [Compound P-141] | >100
19 | O=C(c1cccc(-c2ccccc2)c1)N1CCC[C@H]1c1ncc(-c2ccc(-c3ccc(-c4cnc([C@@H]5CCCN5C(=O)c5cccc(-c6ccccc6)c5)[nH]4)cc3)cc2)[nH]1 [Compound S-128] | >10
20 | COC(C)(C)C(=O)N[C@H](c1nc(-c2ccc(-c3ccc(-c4c[nH]c([C@@H](NC(=O)C(C)(C)OC)C(C)(C)C)n4)c(F)c3)cc2)c[nH]1)C(C)(C)C [Compound N-94] | >100
21 | CC(C)(C)OC(=O)N1CCCCC1(C)C(=O)N[C@H](c1nc(-c2ccc(-c3ccc(-c4c[nH]c([C@@H](NC(=O)C5(C)CCCCN5C(=O)OC(C)(C)C)C(C)(C)C)n4)cc3)cc2)c[nH]1)C(C)(C)C (stereo partly drawn) [Compound L-46a] | >100
22 | CC(C)(C)[C@H](NC(=O)[C@H]1[C@@H]2COC[C@@H]21)c1nc(-c2ccc(-c3ccc(-c4c[nH]c([C@@H](NC(=O)[C@H]5[C@@H]6COC[C@@H]65)C(C)(C)C)n4)cc3)cc2)c[nH]1 [Compound L-67] | >100
23 | C=C1C[C@@H](C(=O)N[C@H](c2nc(-c3ccc(-c4ccc(-c5c[nH]c([C@@H](NC(=O)[C@@H]6CC(=C)CN6C(=O)OC(C)(C)C)C(C)(C)C)n5)cc4)cc3)c[nH]2)C(C)(C)C)N(C(=O)OC(C)(C)C)C1 [Compound W-91] | >100
24 | Cc1cc(-c2ccc(-c3c[nH]c([C@@H](NC(=O)C4CC(F)(F)C4)C(C)C)n3)cc2)ccc1-c1c[nH]c([C@@H](NC(=O)C2CC(F)(F)C2)C(C)C)n1 [Compound N-78] | >100
25 | CC(C)(C)[C@H](NC(=O)C1(C)CC1(F)F)c1nc(-c2ccc(-c3ccc(-c4c[nH]c([C@@H](NC(=O)C5(C)CC5(F)F)C(C)(C)C)n4)cc3)cc2)c[nH]1 (stereo partly drawn) [Compound L-58a] | >100
26 | COC(=O)CCC(=O)N1CCC[C@H]1c1ncc(-c2ccc(-c3ccc(-c4cnc([C@@H]5CCCN5C(=O)CCC(=O)OC)[nH]4)cc3)cc2)[nH]1 [Compound S-173] | <10
27 | COC12CCC(C(=O)N[C@H](c3nc(-c4ccc(-c5ccc(-c6c[nH]c([C@@H](NC(=O)C78CCC(OC)(CC7)CC8)C(C)(C)C)n6)cc5)cc4)c[nH]3)C(C)(C)C)(CC1)CC2 [Compound S-293] | >100
28 | CC(C)(C)OC(=O)N[C@@H]1CCCC(C(=O)N[C@H](c2nc(-c3ccc(-c4ccc(-c5c[nH]c([C@@H](NC(=O)C6CCC[C@@H](NC(=O)OC(C)(C)C)C6)C(C)(C)C)n5)cc4)cc3)c[nH]2)C(C)(C)C)C1 (some centres unmarked) [Compound S-266] | >100
29 | O=C(c1ccc2ncsc2c1)N1CCC[C@H]1c1ncc(-c2ccc(-c3ccc(-c4cnc([C@@H]5CCCN5C(=O)c5ccc6ncsc6c5)[nH]4)cc3)cc2)[nH]1 [Compound S-136] | <10
